The values that follow come from US20050022267A1, “Methods for Agrobacterium-mediated transformation of dandelion” (priority 2003, published 2005).

Assay [1] deals with dandelion leaf explants. In words: Effect of maltose on shoot regeneration in shoot induction media. In kind it is cell-based. The following applies: 1% maltose (w/v) in shoot induction media. The procedure:
Leaf explants derived from dandelion plants were cultured in shoot induction media containing no maltose (w/v) or 1% maltose (w/v) to compare the efficacy of maltose on shoot production.

The conditions of assay [2]: isolated from dandelion roots; cited from earlier work.
In assay [3] the test system is dandelion leaf explants. In words: Effect of phyto-hormones on dandelion regeneration: adventitious shoot formation of leaf explants on seedling media. In kind it is cell-based. The note with it: four weeks. The procedure:
Dandelion seeds are surface-sterilized in approximately 70% (volume/volume, v/v) ethanol for 30 sec in the bottle. The ethanol is removed and the seeds are soaked in approximately 1% (v/v) bleach with gentle agitation for about 15 minutes. The bleach is poured off and the […] are rinsed thoroughly about 3-4 times with sterilized distilled water. Seeds are germinated and in vitro cultured in the sterile bottles containing seedling medium (Table 1). Over one month-old seedlings are used as stock plants for leaf and root explants. The leaves and roots of stock plants are placed in a petri plate with droplets of sterile water. Explants of leaves (ca. 0.5 cm in diameter) and of roots (ca. 0.5 cm in length) were excised from dandelion plants. Approximately 15 to 20 explants per plate are positioned with the adaxial surface down onto pre-incubation medium (Table 2). The plates are incubated under mixed white and red lights for about 6 days at about 22° C. […] Parentheses indicate the number of regenerated shoots per explant.

[4] abbreviates: α-naphthalene acetic acid 0.1 mg/L, 6-benzyladenine 0 mg/L.
[5] abbreviates: α-naphthalene acetic acid 0.1 mg/L, kinetin 0 mg/L.
[6] abbreviates: α-naphthalene acetic acid 0.5 mg/L, 6-benzyladenine 0 mg/L.
Where [7] appears, read: α-naphthalene acetic acid 0.5 mg/L, kinetin 0 mg/L.
Where [8] appears, read: α-naphthalene acetic acid 1.0 mg/L, 6-benzyladenine 0 mg/L.
Where [9] appears, read: α-naphthalene acetic acid 1.0 mg/L, kinetin 0 mg/L.
Where [10] appears, read: α-naphthalene acetic acid 2.0 mg/L, 6-benzyladenine 0 mg/L.
[11] abbreviates: α-naphthalene acetic acid 2.0 mg/L, kinetin 0 mg/L.

In the case of `OC[C@H]1O[C@H](O[C@H]2[C@H](O)[C@@H](O)C(O)O[C@@H]2CO)[C@H](O)[C@@H](O)[C@@H]1O` (mixture of isomers) [Maltose, maltose], the “shoot production in comparison to no maltose” value in the assay with dandelion leaf explants [1] was “improves shoot production”. Further, in the assay on dandelion leaf explants [1] (leaf explants), the “# of Shoots per Explants” value is 25.
Take `C=C1CC[C@]2(C)CC[C@]3(C)[C@H](CC[C@@H]4[C@@]5(C)CC[C@H](O)C(C)(C)[C@@H]5CC[C@]43C)[C@H]2[C@@H]1C` [taraxasterol]: the anti-tumor-promoting activity entry in assay [2] was “potent anti-tumor-promoting activity”.
As to `CC1(C)CC[C@]2(C)CC=C3[C@]4(C)CC[C@H]5C(C)(C)[C@@H](O)CC[C@]5(C)[C@H]4CC[C@@]3(C)[C@@H]2C1` [taraxerol], the anti-tumor-promoting activity result in assay [2] is given as “potent anti-tumor-promoting activity”.
For `O=C(O)Cc1cccc2ccccc12` [α-Naphthalene acetic acid, α-naphthalene acetic acid], the “number of regenerated shoots per explant” value in the assay with dandelion leaf explants [3] (setting [4]) is on record as “(0.0) shoots per explant”; in the assay with dandelion leaf explants [3] (setting [5]), “(0.0) shoots per explant”; in the assay with dandelion leaf explants [3] (setting [6]) it was “(2.0) shoots per explant”; in the assay with dandelion leaf explants [3] (setting [7]), “(0.0) shoots per explant”; with dandelion leaf explants [3] (setting [8]), “(0.0) shoots per explant”; in the assay with dandelion leaf explants [3] (setting [9]), “(0.0) shoots per explant”. Also, the “number of regenerated shoots per explant” value with dandelion leaf explants [3] (setting [10]) and in the assay with dandelion leaf explants [3] (setting [11]) was “(0.0) shoots per explant” throughout. Further, the “percentage of leaf explants displaying adventitious shoot formation” value worked out at 0.0% in the assay on dandelion leaf explants [3] (setting [4]); 0.0% in the assay with dandelion leaf explants [3] (setting [5]); 20.0% in the assay on dandelion leaf explants [3] (setting [6]); 0.0% with dandelion leaf explants [3] (setting [7]); 0.0% in the assay with dandelion leaf explants [3] (setting [8]); 5.0% with dandelion leaf explants [3] (setting [9]). Also, the “percentage of leaf explants displaying adventitious shoot formation” value in the assay with dandelion leaf explants [3] (setting [10]) and with dandelion leaf explants [3] (setting [11]) was 0.0% throughout.
